Reference: paper PMC12281424, “A Rac-specific competitive inhibitor of guanine nucleotide binding reduces metastasis in triple-negative breast cancer” (Cell Reports Medicine, 2025)

Tests used:
RAC1 P29S = biological target: T1, RAC1 P29S (Homo sapiens, UniProt P63000, P29S); assay: RAC-GTP pull-down in transfected NIH-3T3 fibroblasts; type: cell-based; settings: 10^-5 M
T1 construct: expressed in transfected cells; host or cells: NIH-3T3 fibroblasts
Protocol: (§1) Figure 4 A41 selectively impairs RAC protein activation (A) Representative surface plasmon resonance (SPR) sensograms of binding of immobilized RHOA or CDC42 with indicated increasing concentrations of A41 (N > 3). (B) Effect of A41 on GEF-stimulated RAC2, RHOG, RHOA, and CDC42 nucleotide exchange. Purified small G proteins were pre-loaded with GDP and then nucleotide exchange was monitored by the increase in fluorescence following mant-GTP binding in the absence and presence of A41 (5 μM) (N = 3). Kobs is expressed as mean ± SEM. ∗p < 0.001 vs. control. (C) Effect of A41 on RAC1 G30S activation. RAC1 G30S activation was monitored by the increase in fluorescence following mant-GTP binding in the absence and presence of A41 (5 μM). […] Data are expressed as mean ± SEM. (D) Immunoblot analysis and associated quantification of RAC-GTP level and total RAC expression in NIH-3T3 fibroblasts expressing RAC wild-type (RAC1 WT) or RAC1 oncomutants (RAC1 P29S and RAC1b) in the absence (Ctrl) and presence of A41 (10 μM). RAC activation was measured as the ratio of RAC-GTP to total RAC and expressed relative to Ctrl condition. […]
(§2) Pull-down assay using GST-PBD fusion proteins were performed on NIH-3T3 lysates to assess RAC1 activity as previously described.[63] The precipitated active RAC was subjected to SDS-PAGE and detected by immunoblot with anti-RAC1 antibody (BD biosciences) (dilution 1/1000).

RAC1b = biological target: T2, RAC1b (Homo sapiens, UniProt P63000); assay: as above; type: cell-based; settings: 10^-5 M
T2 construct: expressed in transfected cells; host or cells: NIH-3T3 fibroblasts
Protocol: as §1, §2

[1] = biological target: PI3K (p110a(E545K)/p85a)(m) (Mus musculus, UniProt P42337, E545K); assay: Kinase Profiler; type: biochemical
Protocol: (§3) Blood cell counts, kinase profiler, safety screen, bacterial cytotoxicity, Ames, micronucleus assays were performed by the company Eurofins (France). The kinase profiler was performed by the company Eurofins (Discovery, Panlab and Cerep).

Hck(h) = Hck(h) (Homo sapiens, UniProt P08631); assay: Kinase Profiler; type: biochemical
Protocol: (§4) The kinase profiler was performed by the company Eurofins (Discovery, Panlab and Cerep).

[2] = biological target: PI3K (p110a(H1047R)/p85a)(h) (Homo sapiens, UniProt P42336, H1047R); assay: Kinase Profiler; type: biochemical
Protocol: as §4

Met(D1246N)(h) = Met(D1246N)(h) (Homo sapiens, UniProt P08581, D1228N); assay: Kinase Profiler; type: biochemical
Protocol: as §4

PKCβII(h) = PKCβII(h) (Homo sapiens, UniProt P05771); assay: Kinase Profiler; type: biochemical
Protocol: as §4

Neuropeptide Y Y1 = Neuropeptide Y Y1 (Homo sapiens, UniProt P25929); assay: Safety screen; type: binding
Protocol: (§5) Blood cell counts, kinase profiler, safety screen, bacterial cytotoxicity, Ames, micronucleus assays were performed by the company Eurofins (France).

NIH/3T3 cell migration = assay: 1D cell migration (CYTOO plates); type: cell-based; settings: 10^-5 M
Protocol: NIH3T3cells (1000/well) were seeded in a 96 well plate with […] fibronectin stripes (CytooPlates Motility, CYTOO) in medium with 1% SVF and allowed to spread for 4 h before capturing time-lapse images for 24 h (image/10 min) on a Widefield Leica DMI 6000B drove with Metamorph software. Cells speed was measured with ImageJ software.
Supplementary Fig. 3: Example of one pharmacophore model used for virtual screening. (a) The pharmacophore model shown was created based on RAC1 (grey) and NSC23766 (orange) interaction. The pharmacophore model is formed by two hydrogenbond acceptor(HBA)features,one orientedtowardsthe hydroxylgroup of Ser71 (S71) and the other towards the amine group of Gln74 (Q74), one hydrogen bond donor (HBD) feature pointed to the oxygenatom of Leu70 (L70) and two hydrophobic features (HY) located on certain carbon atoms of NSC23766 and facing residues Val36 (V36), Ala59 (A59), Tyr64 (Y64) and Leu67 (L67). The spheres correspond to locationconstraint. […] (b) Impact of different screening molecules (10^-5 M) on NIH/3T3 cell adhesion (xCELLingence Real-time cellanalysis, Agilent), migration (CYTOO Mobility plates) and proliferation (xCELLingence Real-time cell analysis, Agilent) .The level of RAC activation is determinedby the detection of RAC-GTP (pull-down assay) in NIH/3T3 cell treated with EGF (10 ng/mL) and the differentmolecules and normalize to the level of RAC activity measuredin the presenceof the reference RAC inhibitor EHT1864.
Supplementary Fig. 4: A41 inhibits RAC-dependent cell functions. (a) Representative records of single NIH/3T3 cell migration on micropatterned fibronectin lines (CYTOO Mobility plates) in the absence (Control)and presenceA41 at 10^-5 M (left panel) and corresponding quantification of migration speed (right panel) (scale bar: 20µm). […] (b) Typical curves showing the cell index representing the adhesion of NIH/3T3 fibroblast (xCELLingence Real-time cell analysis, Agilent) under control condition (Control) and pre-treated with 10 µM A41 or NSC23766 (left panel) and corresponding quantification of cell adhesion speed (right panel). […]

Nicotinic Acetylcholine = assay: Safety screen; type: binding, human
Protocol: as §5

[3] = biological target: PI3K (p110a(E545K)/p85a)(h) (Homo sapiens, UniProt P42336, E545K); assay: Kinase Profiler; type: biochemical
Protocol: as §4

CDK17/cyclinY(h) = CDK17/cyclinY(h) (Homo sapiens, UniProt Q00537); assay: Kinase Profiler; type: biochemical
Protocol: as §3

PDGFRα(V561D)(h) = PDGFRα(V561D)(h) (Homo sapiens, UniProt P16234, V561D); assay: Kinase Profiler; type: biochemical
Protocol: as §4

PKCα(h) = PKCα(h) (Homo sapiens, UniProt P17252); assay: Kinase Profiler; type: biochemical
Protocol: as §4

BRK(h) = BRK(h) (Homo sapiens, UniProt Q13882); assay: Kinase Profiler; type: biochemical
Protocol: as §3

RIPK1(h) = RIPK1(h) (Homo sapiens, UniProt Q13546); assay: Kinase Profiler; type: biochemical
Chain of RIPK1(h) (Q13546 whole entry): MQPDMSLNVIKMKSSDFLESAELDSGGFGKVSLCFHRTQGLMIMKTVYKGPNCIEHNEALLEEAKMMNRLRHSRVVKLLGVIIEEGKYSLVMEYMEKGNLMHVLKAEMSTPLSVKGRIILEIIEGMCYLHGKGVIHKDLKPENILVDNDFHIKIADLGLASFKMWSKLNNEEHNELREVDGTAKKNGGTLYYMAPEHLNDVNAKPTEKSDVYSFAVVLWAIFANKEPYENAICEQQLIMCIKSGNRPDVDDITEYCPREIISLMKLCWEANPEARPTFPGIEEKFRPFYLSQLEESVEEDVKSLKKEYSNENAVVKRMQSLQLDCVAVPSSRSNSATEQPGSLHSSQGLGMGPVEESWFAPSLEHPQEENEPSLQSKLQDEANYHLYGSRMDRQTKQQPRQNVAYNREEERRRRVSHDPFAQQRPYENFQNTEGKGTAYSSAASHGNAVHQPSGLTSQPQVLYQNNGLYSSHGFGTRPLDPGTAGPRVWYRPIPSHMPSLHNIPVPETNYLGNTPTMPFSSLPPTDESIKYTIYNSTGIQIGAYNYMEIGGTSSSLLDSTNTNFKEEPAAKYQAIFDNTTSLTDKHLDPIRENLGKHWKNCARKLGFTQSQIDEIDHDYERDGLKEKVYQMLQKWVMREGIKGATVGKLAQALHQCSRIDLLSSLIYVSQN
Protocol: as §4

Chain of BRK(h) (Q13882 whole entry): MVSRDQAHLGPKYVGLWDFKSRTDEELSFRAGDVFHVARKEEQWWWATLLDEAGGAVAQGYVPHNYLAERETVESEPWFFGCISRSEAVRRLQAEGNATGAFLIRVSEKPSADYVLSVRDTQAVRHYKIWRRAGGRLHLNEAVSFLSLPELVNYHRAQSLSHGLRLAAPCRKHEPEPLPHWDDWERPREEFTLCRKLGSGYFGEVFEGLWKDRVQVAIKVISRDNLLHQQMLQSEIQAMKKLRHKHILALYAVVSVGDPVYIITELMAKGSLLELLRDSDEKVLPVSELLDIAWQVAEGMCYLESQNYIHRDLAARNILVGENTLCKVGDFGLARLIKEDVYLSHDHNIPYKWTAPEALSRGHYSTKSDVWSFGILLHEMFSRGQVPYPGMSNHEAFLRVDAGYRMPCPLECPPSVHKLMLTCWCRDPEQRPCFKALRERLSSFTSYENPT
Chain of PI3K (p110a(E545K)/p85a)(h) (P42336 whole entry E545K): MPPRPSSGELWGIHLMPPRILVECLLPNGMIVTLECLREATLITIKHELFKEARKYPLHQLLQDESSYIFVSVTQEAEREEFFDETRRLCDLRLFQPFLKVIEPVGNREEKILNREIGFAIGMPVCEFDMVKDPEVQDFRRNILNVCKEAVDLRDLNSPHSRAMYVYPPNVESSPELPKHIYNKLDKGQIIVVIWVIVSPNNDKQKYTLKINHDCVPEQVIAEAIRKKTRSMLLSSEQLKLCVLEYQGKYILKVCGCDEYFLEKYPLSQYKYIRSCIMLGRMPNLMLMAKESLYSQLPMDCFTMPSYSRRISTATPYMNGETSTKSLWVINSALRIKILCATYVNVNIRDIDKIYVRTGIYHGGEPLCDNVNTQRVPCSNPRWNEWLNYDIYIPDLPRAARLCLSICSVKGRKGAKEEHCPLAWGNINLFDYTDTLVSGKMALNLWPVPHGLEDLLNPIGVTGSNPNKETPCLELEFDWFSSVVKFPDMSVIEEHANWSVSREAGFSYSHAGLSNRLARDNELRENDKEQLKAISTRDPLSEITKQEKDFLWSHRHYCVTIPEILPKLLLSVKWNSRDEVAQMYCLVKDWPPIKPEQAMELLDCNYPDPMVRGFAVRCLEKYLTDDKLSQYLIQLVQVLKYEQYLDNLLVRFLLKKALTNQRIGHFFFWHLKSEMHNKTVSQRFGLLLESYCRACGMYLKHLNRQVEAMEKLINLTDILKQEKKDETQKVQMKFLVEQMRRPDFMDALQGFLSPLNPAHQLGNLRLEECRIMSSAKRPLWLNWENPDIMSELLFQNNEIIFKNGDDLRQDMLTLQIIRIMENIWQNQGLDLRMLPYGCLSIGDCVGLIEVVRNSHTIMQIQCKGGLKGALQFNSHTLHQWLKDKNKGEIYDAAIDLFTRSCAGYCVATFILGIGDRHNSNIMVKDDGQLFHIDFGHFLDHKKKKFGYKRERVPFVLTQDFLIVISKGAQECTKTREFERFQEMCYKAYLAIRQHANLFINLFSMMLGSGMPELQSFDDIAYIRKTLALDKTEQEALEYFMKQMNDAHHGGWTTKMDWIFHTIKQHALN
Chain of PI3K (p110a(E545K)/p85a)(h) (P27986 whole entry partner): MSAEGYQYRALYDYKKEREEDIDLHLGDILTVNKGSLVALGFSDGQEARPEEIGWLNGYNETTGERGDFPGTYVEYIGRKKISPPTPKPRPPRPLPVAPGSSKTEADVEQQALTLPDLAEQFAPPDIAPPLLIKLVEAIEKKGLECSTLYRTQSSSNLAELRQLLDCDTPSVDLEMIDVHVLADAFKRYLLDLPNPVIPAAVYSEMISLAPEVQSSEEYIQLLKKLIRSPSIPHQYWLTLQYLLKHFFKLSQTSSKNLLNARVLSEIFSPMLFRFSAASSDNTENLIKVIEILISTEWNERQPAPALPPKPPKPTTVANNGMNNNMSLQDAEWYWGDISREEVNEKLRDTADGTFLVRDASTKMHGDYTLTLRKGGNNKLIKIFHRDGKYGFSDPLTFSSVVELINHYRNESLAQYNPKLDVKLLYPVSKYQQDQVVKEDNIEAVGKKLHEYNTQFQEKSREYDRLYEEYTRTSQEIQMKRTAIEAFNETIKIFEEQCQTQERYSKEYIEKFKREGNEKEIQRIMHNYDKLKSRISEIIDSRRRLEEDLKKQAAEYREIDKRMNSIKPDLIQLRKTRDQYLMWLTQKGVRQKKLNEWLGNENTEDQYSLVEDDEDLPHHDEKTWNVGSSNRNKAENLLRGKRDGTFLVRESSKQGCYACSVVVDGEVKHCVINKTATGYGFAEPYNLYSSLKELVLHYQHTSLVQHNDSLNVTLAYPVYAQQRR
Chain of Hck(h) (P08631 whole entry): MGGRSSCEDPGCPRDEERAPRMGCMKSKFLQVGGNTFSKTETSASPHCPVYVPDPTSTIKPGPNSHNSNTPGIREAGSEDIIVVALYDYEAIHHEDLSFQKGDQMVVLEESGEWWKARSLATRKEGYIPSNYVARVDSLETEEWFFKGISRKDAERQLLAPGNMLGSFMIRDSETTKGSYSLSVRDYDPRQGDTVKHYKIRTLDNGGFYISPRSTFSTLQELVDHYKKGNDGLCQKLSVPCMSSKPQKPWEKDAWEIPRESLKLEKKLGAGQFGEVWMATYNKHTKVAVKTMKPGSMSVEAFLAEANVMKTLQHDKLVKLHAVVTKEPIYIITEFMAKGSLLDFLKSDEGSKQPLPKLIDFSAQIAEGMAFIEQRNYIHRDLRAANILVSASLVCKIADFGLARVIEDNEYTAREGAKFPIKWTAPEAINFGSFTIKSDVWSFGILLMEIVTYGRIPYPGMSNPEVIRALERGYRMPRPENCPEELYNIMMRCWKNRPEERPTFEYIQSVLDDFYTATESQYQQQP
Chain of Neuropeptide Y Y1 (P25929 whole entry): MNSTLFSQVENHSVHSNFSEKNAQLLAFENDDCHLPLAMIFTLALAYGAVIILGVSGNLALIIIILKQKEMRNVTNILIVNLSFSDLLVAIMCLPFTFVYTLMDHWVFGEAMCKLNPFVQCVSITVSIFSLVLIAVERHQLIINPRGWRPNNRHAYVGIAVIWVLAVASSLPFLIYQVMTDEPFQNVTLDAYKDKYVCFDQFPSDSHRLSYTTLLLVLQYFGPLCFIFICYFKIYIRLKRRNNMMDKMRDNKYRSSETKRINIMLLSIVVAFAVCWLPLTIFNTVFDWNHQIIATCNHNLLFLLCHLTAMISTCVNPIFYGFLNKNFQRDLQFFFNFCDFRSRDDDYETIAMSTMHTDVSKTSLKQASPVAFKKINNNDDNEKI
Chain of PDGFRα(V561D)(h) (P16234 24-1089 V561D): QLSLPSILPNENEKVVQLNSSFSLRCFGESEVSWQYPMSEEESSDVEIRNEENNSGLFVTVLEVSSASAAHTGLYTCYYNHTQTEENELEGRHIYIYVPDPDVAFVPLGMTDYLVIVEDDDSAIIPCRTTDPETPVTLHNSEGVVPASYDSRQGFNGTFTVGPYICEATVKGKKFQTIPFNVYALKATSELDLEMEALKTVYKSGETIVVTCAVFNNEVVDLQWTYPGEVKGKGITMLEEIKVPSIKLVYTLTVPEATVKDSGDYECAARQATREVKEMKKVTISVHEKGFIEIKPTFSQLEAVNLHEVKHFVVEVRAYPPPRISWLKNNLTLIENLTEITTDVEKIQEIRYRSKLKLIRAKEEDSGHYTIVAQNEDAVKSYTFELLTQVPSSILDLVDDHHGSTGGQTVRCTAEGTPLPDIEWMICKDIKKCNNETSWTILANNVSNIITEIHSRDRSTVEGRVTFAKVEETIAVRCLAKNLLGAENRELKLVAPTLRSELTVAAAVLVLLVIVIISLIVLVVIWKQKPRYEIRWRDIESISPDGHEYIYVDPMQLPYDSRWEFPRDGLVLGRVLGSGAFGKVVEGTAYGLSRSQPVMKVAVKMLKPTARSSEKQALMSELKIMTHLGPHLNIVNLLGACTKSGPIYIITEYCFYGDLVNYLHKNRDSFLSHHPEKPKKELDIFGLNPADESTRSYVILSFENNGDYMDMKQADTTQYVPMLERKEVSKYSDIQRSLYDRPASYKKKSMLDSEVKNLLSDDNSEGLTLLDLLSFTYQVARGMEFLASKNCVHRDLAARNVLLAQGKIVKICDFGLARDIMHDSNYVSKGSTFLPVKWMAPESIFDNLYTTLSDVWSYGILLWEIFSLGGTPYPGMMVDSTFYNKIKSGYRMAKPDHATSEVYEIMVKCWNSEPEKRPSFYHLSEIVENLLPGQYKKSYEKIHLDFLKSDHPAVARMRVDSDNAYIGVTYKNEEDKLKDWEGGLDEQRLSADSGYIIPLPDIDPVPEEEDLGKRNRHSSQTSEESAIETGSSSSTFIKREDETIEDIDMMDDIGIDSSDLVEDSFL
Chain of PI3K (p110a(H1047R)/p85a)(h) (P42336 whole entry H1047R): as the sequence (P42336 whole entry E545K) above, with K545E, H1047R counted along it
Chain of PI3K (p110a(H1047R)/p85a)(h) (P27986 whole entry partner): as the sequence (P27986 whole entry partner) above

## COc1ccc(OC)c(NS(=O)(=O)c2ccc(NC(=O)CCSc3ccc(C)cc3)cc2)c1 [Compound A41]
RAC1 P29S
  activity of RAC P29S (RAC-GTP): reduced the activity
RAC1b
  activity of RAC1b (RAC-GTP): reduced the activity
[1]
  Activity(%): 100%
Hck(h)
  Activity(%): 111%
[2]
  Activity(%): 97%
Met(D1246N)(h)
  Activity(%): 119%
PKCβII(h)
  Activity(%): 97%
Neuropeptide Y Y1
  % inh.: -2%
NIH/3T3 cell migration
  cell migration: efficiently inhibited both functions
Nicotinic Acetylcholine
  % inh.: -3%
[3]
  Activity(%): 105%
CDK17/cyclinY(h)
  Activity(%): 96%
PDGFRα(V561D)(h)
  Activity(%): 119%
PKCα(h)
  Activity(%): 105%
BRK(h)
  Activity(%): 107%
RIPK1(h)
  Activity(%): 98%
